{"source": "BindingDB's records for patent US20250213705", "about": "(Bright Peak Therapeutics, 2025)", "key": {"[1]": {"target": "T1, Glutamate carboxypeptidase 2 (Homo sapiens, UniProt Q04609)", "T1 sequence (Q04609 whole entry)": "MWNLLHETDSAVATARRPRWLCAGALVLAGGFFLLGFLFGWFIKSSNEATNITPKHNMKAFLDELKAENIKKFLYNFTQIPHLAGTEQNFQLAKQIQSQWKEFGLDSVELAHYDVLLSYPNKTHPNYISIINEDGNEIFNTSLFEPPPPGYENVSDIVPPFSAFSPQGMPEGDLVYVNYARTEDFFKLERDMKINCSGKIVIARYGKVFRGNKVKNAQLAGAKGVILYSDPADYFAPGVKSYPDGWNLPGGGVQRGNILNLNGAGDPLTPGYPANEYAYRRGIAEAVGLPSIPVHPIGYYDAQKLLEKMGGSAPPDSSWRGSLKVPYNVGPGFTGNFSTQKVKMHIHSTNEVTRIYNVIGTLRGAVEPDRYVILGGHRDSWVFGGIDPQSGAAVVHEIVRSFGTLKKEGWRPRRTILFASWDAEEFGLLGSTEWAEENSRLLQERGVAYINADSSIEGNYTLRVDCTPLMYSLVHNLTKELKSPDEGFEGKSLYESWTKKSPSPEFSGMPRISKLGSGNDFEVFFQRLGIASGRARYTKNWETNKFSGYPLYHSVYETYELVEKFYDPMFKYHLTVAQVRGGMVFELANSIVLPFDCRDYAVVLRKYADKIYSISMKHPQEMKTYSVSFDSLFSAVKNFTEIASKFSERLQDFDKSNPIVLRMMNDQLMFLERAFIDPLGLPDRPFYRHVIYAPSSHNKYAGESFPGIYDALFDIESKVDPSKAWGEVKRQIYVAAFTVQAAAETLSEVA", "experiment": "Inhibition Assay", "description": "Prepare a working solution of 100 μM Amplex Red reagent containing 0.25 U/mL HRP, 0.08 U/mL L-glutamate oxidase, 0.5 U/mL 1-glutamate-pyruvate transaminase, 200 μM L-alanine and keep protected from light. […] Final concentration is 5 nM. Transfer 10 μl/well of the inhibitor solution previously prepared in a separate 96 wells/plate. […] Incubate the reactions for 30 min at 37° C., protected from light. Because the assay is continuous (not terminated), fluorescence may be measured at multiple time points to follow the kinetics of the reactions. Measure the fluorescence in a fluorescence microplate reader using excitation in the range of 530-560 nm and emission detection at ˜590 nm. Ec50s were determined with GraphPad Prism. Ki is calculated based on Cheng-Prusoff equation."}, "[2]": {"target": "T1, Glutamate carboxypeptidase 2", "experiment": "SPR Analysis", "description": "The interaction of PSMA-binding variants with human FOLH1 was measured with Surface Plasmon Resonance (SPR) technology. Biotinylated FOLH1 was captured at a concentration of 30 μg/mL onto a Streptavidin chip. […] After each cycle, needles were washed with 50% DMSO. To measure the association to the FOLH1 protein, the samples were injected with a flow rate of 30 μL/min for 90 s, followed by 1200 s buffer only to detect the dissociation. The used running buffer was 1×PBS with 0.05% Tween20 and 2% DMSO. The relative response units (RU, Y-axis) are plotted against time (s, X-axis) and analyzed in a kinetic 1:1 binding model. In a different setup, biotinylated FOLH1 was captured at a concentration of 0.8 μg/mL and the running buffer was 1×PBS with 0.05% Tween20."}}, "data": [{"smiles": "CC(=O)NCCOCCOCCOCCC(=O)NC[C@H]1CC[C@H](C(=O)N[C@@H](Cc2ccc3ccccc3c2)C(=O)NCCCC[C@H](NC(=O)N[C@@H](CC(=O)O)C(=O)O)C(=O)O)CC1", "note": "[US20250213705, Compound 23]", "values": [{"measurement": "IC50", "setting": "[1]", "result": 7010, "unit": "nM"}, {"measurement": "Ki", "setting": "[1]", "result": 50.1, "unit": "nM"}, {"measurement": "Kd", "setting": "[2]", "result": 120, "unit": "nM"}]}, {"smiles": "CC(=O)NCCOCCOCCOCCC(=O)NC[C@H]1CC[C@H](C(=O)N[C@@H](Cc2ccc3ccccc3c2)C(=O)NCCCC[C@H](NC(=O)N[C@@H](CS)C(=O)O)C(=O)O)CC1", "note": "[US20250213705, Compound 28]", "values": [{"measurement": "IC50", "setting": "[1]", "result": 21300, "unit": "nM"}, {"measurement": "Ki", "setting": "[1]", "result": 152, "unit": "nM"}]}, {"smiles": "CC(=O)NCCOCCOCCOCCC(=O)NC[C@H]1CC[C@H](C(=O)N[C@@H](CCCCNC(=O)C(F)(F)F)C(=O)NCCCC[C@H](NC(=O)N[C@@H](CCC(=O)O)C(=O)O)C(=O)O)CC1", "note": "[US20250213705, Compound 54]", "values": [{"measurement": "IC50", "setting": "[1]", "result": 89, "unit": "nM"}, {"measurement": "Ki", "setting": "[1]", "result": 0.636, "unit": "nM"}]}, {"smiles": "CC(=O)NCCOCCOCCOCCC(=O)N(CCCOc1cc(C#N)cc(C#N)c1)CC(=O)N[C@@H](Cc1ccc2ccccc2c1)C(=O)NCCCC[C@H](NC(=O)N[C@@H](CCC(=O)O)C(=O)O)C(=O)O", "note": "[US20250213705, Compound 78]", "values": [{"measurement": "IC50", "setting": "[1]", "result": 6.95, "unit": "nM"}, {"measurement": "Ki", "setting": "[1]", "result": 0.05, "unit": "nM"}, {"measurement": "Kd", "setting": "[2]", "result": 0.43, "unit": "nM"}]}, {"smiles": "CC(=O)NCCOCCOCCOCCC(=O)N1C[C@H](NC(=O)CCCOc2cc(C#N)cc(C#N)c2)C[C@H]1C(=O)N[C@@H](Cc1ccc2ccccc2c1)C(=O)NCCCC[C@H](NC(=O)N[C@@H](CCC(=O)O)C(=O)O)C(=O)O", "note": "[US20250213705, Compound 80]", "values": [{"measurement": "IC50", "setting": "[1]", "result": 2.35, "unit": "nM"}, {"measurement": "Ki", "setting": "[1]", "result": 0.017, "unit": "nM"}, {"measurement": "Kd", "setting": "[2]", "result": 2.46, "unit": "nM"}]}, {"smiles": "CC(=O)NCCOCCOCCOCCC(=O)N[C@@H]1C[C@@H](C(=O)N[C@@H](Cc2ccc3ccccc3c2)C(=O)NCCCC[C@H](NC(=O)N[C@@H](CCC(=O)O)C(=O)O)C(=O)O)N(C(=O)COc2cc(C#N)cc(C#N)c2)C1", "note": "[US20250213705, Compound 81]", "values": [{"measurement": "IC50", "setting": "[1]", "result": 10.7, "unit": "nM"}, {"measurement": "Ki", "setting": "[1]", "result": 0.076, "unit": "nM"}, {"measurement": "Kd", "setting": "[2]", "result": 4.12, "unit": "nM"}]}, {"smiles": "CC(=O)NCCCC[C@H](NC(=O)[C@H]1CC[C@H](CNC(=O)CCOCCOCCOCCNC(C)=O)CC1)C(=O)NCCCC[C@H](NC(=O)N[C@@H](CCC(=O)O)C(=O)O)C(=O)O", "note": "[US20250213705, Compound 83]", "values": [{"measurement": "IC50", "setting": "[1]", "result": 2.87, "unit": "nM"}, {"measurement": "Ki", "setting": "[1]", "result": 0.021, "unit": "nM"}]}, {"smiles": "CC(=O)NCCOCCOCCOCCC(=O)N[C@@H](Cc1cccc(C(=O)O)c1)C(=O)NCC(=O)N[C@@H](Cc1ccc2ccccc2c1)C(=O)NCCCC[C@H](NC(=O)N[C@@H](CCC(=O)O)C(=O)O)C(=O)O", "note": "[US20250213705, Compound 84]", "values": [{"measurement": "IC50", "setting": "[1]", "result": 5.11, "unit": "nM"}, {"measurement": "Kd", "setting": "[2]", "result": 1.05, "unit": "nM"}]}, {"smiles": "CC(=O)NCCOCCOCCOCCC(=O)N(CCCOc1cc(C(F)(F)F)cc(C(F)(F)F)c1)CC(=O)N[C@@H](Cc1ccc2ccccc2c1)C(=O)NCCCC[C@H](NC(=O)N[C@@H](CCC(=O)O)C(=O)O)C(=O)O", "note": "[US20250213705, Compound 86]", "values": [{"measurement": "IC50", "setting": "[1]", "result": 59.2, "unit": "nM"}, {"measurement": "Ki", "setting": "[1]", "result": 0.423, "unit": "nM"}, {"measurement": "Kd", "setting": "[2]", "result": 1.17, "unit": "nM"}]}, {"smiles": "CC(=O)NCCOCCOCCOCCC(=O)N1C[C@H](NC(=O)CCCOc2cc(C#N)cc(C#N)c2)C[C@H]1C(=O)NCC(=O)N[C@@H](Cc1ccc2ccccc2c1)C(=O)NCCCC[C@H](NC(=O)N[C@@H](CCC(=O)O)C(=O)O)C(=O)O", "note": "[US20250213705, Compound 91]", "values": [{"measurement": "IC50", "setting": "[1]", "result": 26.1, "unit": "nM"}, {"measurement": "Ki", "setting": "[1]", "result": 0.187, "unit": "nM"}, {"measurement": "Kd", "setting": "[2]", "result": 3.6, "unit": "nM"}]}, {"smiles": "CC(=O)NCCOCCOCCOCCC(=O)N[C@@H]1C[C@@H](C(=O)NCC(=O)N[C@@H](Cc2ccc3ccccc3c2)C(=O)NCCCC[C@H](NC(=O)N[C@@H](CCC(=O)O)C(=O)O)C(=O)O)N(C(=O)CCCOc2cc(C#N)cc(C#N)c2)C1", "note": "[US20250213705, Compound 92]", "values": [{"measurement": "IC50", "setting": "[1]", "result": 79.7, "unit": "nM"}, {"measurement": "Ki", "setting": "[1]", "result": 0.57, "unit": "nM"}, {"measurement": "Kd", "setting": "[2]", "result": 1.01, "unit": "nM"}]}, {"smiles": "CC(=O)NCCOCCOCCOCCC(=O)N[C@@H](Cc1ccc(C(=O)O)cc1)C(=O)NCC(=O)N[C@@H](Cc1ccc2ccccc2c1)C(=O)NCCCC[C@H](NC(=O)N[C@@H](CCC(=O)O)C(=O)O)C(=O)O", "note": "[US20250213705, Compound 94]", "values": [{"measurement": "IC50", "setting": "[1]", "result": 1.87, "unit": "nM"}, {"measurement": "Ki", "setting": "[1]", "result": 0.013, "unit": "nM"}, {"measurement": "Kd", "setting": "[2]", "result": 2.33, "unit": "nM"}]}]}
